Measurements reported in US10052311B2, “PPAR compounds for use in the treatment of fibrotic diseases” (INVENTIVA, priority 2014, dated 2018).
Where “and” joins values, the source holds several entries; their conditions need not be identical. Equal values may be shown once.

Columns and labels:
bleomycin-exposed mice = assay: Bleomycin-induced pulmonary fibrosis in mice; conditions: vs vehicle
Experimental: At the end of the treatment, animals were sacrificed and plasma samples and livers were harvested. Expression of genes that are known to be implicated in the pulmonary inflammation process was quantified and plasmatic levels of lung parameters were measured.
The animals were housed in groups of 3-10 in polypropylene cages (floor area=1032 cm^2) under standard conditions: room temperature (22±2° C.), hygrometry (55±10%), light/dark cycle (12 h/12 h), air replacement (15-20 volumes/hour), water and food (SDS, RM1) ad libitum. Mice were allowed to accommodate themselves for at least 5 days prior to the experimentation. Mice were numbered by marking their tail using indelible markers.
Bleomycin (Laboratoire Bellon) was dissolved in 0.9% NaCl (CDM Lavoisier, France) just before use.
On day 14, 2 hours after dosing, animals were anaesthetised with pentobarbital (60 mg/kg, ip) and blood was collected using cardiac puncture. […] Blood sampling (0.9 mL of total blood) was placed in pre-chilled 2-mL lithium-heparin collection tubes. The blood samples were gently mixed, placed on crushed ice and centrifuged within 30 min of sampling at approximately 1500×g for 10 min at approximately +4° C. For each blood sampling, the resultant plasma was separated into 2 aliquots (at least 100 μL each) and transferred using disposable plastic material into polypropylene tubes. The samples were immediately transferred in the upright position to a freezer where they were kept at −20° C.
After terminal blood sampling, lung tissue was removed: • A first tissue sample (middle lobe) was harvested and fixed with paraformaldehyde, and kept at 5±3° C. • A second tissue sample (right lobe) was frozen in liquid nitrogen and kept at −20° C.
For the quantification of collagen, sections were stained with Picro-Sirius red and counterstained with Mayer's haematoxylin. […] For all slides, analysis was performed by a single experimenter strictly in the same conditions.
mRNA extraction was performed on small frozen lung samples (50-100 mg). Briefly, samples were cryogenically ground with mortar and pestle. […] RNA quantity was determined with Nanodrop (ND2000 Thermo Scientific) and RNA quality was verified with Bioanalyzer (2100 Agilent Technology).
Real Time PCR was performed on ABI PRISM 7900 apparatus Raw data from ABI7900 were exported in text format. […] Each RNA samples were reverse transcribed and quantified in triplicate.
Samples of lung and supernatants were kept on ice during all experiment. For extraction, the manufacturer recommends 10 mg of tissue for 100 μl T-Per+1 μl “Halt-protease” (100×).
50 ml of T-Per buffer were prepared, to which 500 μl of “Halt-protease” (100×) were added, and the mixture was kept on ice. Samples of 50 to 70 mg of lung just thawed were weighed and cut into small pieces, and 1 ml of cold PBS was added to wash the tissue. The mixture was centrifuged at 500 g during 5 min at 4° C., and the supernatant was discarded. 100 μl/10 mg of T-Per+antiproteases (100×) were added, crushing the lung with a Potter, with 5 or 6 twists, up and down. The mixture was centrifuged at 10000 g during 5 min at 4° C. The supernatant was removed, aliquoted and kept at −20° C. for the subsequent measurement of biomarkers.
All proteins were quantified with ELISA Kit, according to the instructions of the manufacturers: • osteopontin: Quantikine Mouse Osteopontin immunoassay, R&D SYSTEMS®, Ref:MOST00 • MCP-1: Quantikine Mouse CCL2/JE/MCP-1 ELISA Kit, R&D SYSTEMS®, ref: MJE00 • TIMP-1: Mouse TIMP-1, R&D SYSTEMS®, Ref: TM100.
All parameters were analysed using Graphpad software (version 5.1). The parameters were analysed as followed: • Using one-way ANOVA (treatment) to compare groups (1, 2 and 3). […] When ANOVA was found significant, a Dunnett's test was used to compare group 1 to group 4, to group 5, to group 6 and to group 7).

CCl4-exposed mice = assay: Carbon tetrachloride (CCl4)-induced liver fibrosis in mice; assay type: in vivo, mouse; conditions: vs vehicle
Experimental: Mice were allowed to habituate for at least 5 days prior to experimentation.
Sunflower oil (twice a week for 3 weeks, ip)/vehicle (once a day for 22 days po), n=7, • 2. […] CCl4 (3.5 mL/kg, twice a week for 3 weeks, ip)/vehicle (once a day for 22 days po), n=8 • 5.
Two days a week for 3 weeks, mice were intraperitoneally administered in the morning with either 100 μL of CCl4 (3.5 mL kg in sunflower oil (v/v, 1/11)) or 100 μL of sunflower oil.
Measured Parameters Collagen
mRNA extraction was performed on small frozen liver samples (50-100 mg).

anti-GBM exposed mice = assay: Anti-GBM induced glomerulonephritis in mice; assay type: in vivo, mouse; conditions: vs vehicle
mouse PPARγ = mouse PPARγ (Mus musculus, UniProt P37238); assay: cell-based
mouse PPARγ, sequence (P37238 238-505 limits assumed): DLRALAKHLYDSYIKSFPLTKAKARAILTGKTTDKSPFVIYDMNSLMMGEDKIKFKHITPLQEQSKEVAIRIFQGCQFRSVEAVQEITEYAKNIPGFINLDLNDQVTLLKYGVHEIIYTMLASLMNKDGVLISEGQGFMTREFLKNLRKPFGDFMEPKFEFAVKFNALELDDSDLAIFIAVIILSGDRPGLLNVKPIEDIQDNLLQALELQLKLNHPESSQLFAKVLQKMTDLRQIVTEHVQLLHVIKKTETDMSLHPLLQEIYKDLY

human PPARδ = biological target: T1, human PPARδ (Homo sapiens, UniProt Q03181); assay: Transient transactivation assay, Cos-7 cells, chimeric PPARδ-Gal4, luciferase reporter; assay type: cell-based; conditions: Gal4 chimera, mean of 6 experiments
T1 sequence (Q03181 211-441 limits assumed): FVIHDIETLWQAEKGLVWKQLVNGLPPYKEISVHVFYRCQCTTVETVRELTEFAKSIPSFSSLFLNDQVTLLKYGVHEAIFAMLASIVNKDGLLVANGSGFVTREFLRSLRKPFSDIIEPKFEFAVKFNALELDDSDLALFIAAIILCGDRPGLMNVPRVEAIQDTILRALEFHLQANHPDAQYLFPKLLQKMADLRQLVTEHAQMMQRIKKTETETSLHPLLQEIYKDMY
Experimental: Transfections were performed by a chemical agent (Jet PEI).

In the case of O=C(O)CCCc1cc2cc(Cl)ccc2n1S(=O)(=O)c1ccc2ncsc2c1 [compound A, 5-Chloro-1-[(6-benzothiazolyl)sulfonyl]-1H-indole-2-butanoic acid], the “MCP-1 expression (lung)” value (bleomycin-exposed mice; 30 mg/kg/day po 15 days) is reported as “inhibited MCP-1 expression compared to vehicle without reaching significance”, the “TIMP-1 expression (lung)” value (bleomycin-exposed mice; 30 mg/kg/day po 15 days) is reported as “inhibited TIMP-1 expression compared to vehicle without reaching significance” and the “lung MCP-1 levels” value (bleomycin-exposed mice; 30 mg/kg/day po 15 days) is reported as “reduced MCP-1 levels compared to vehicle without reaching significance”. For the same molecule, the “lung TIMP-1 levels” value (bleomycin-exposed mice; 30 mg/kg/day po 15 days) was “significantly reduced TIMP-1 levels”, the lung osteopontin levels (bleomycin-exposed mice; 30 mg/kg/day po 15 days) was “reduced osteopontin levels compared to vehicle without reaching significance” and the “osteopontin expression (lung)” value (bleomycin-exposed mice; 30 mg/kg/day po 15 days) was “significantly inhibited osteopontin expression”. For the same molecule, the “Col1a expression (lung)” value (bleomycin-exposed mice; 100 mg/kg/day po 15 days) was “significantly inhibited Col1a expression”, the “Col3a expression (lung)” value (bleomycin-exposed mice; 100 mg/kg/day po 15 days) was “significantly inhibited Col3a expression” and the “MCP-1 expression (lung)” value (bleomycin-exposed mice; 100 mg/kg/day po 15 days) was “inhibited MCP-1 expression compared to vehicle without reaching significance”. For the same molecule, the “TGFβR-1 expression (lung)” value (bleomycin-exposed mice; 100 mg/kg/day po 15 days) was “significantly inhibited TGFβR-1 expression”, the “TIMP-1 expression (lung)” value (bleomycin-exposed mice; 100 mg/kg/day po 15 days) was “inhibited TIMP-1 expression compared to vehicle without reaching significance” and the “collagen deposition (lung)” value (bleomycin-exposed mice; 100 mg/kg/day po 15 days) was “significantly decreased collagen deposition levels”. The “fibronectin expression (lung)” value (bleomycin-exposed mice; 100 mg/kg/day po 15 days) was “significantly inhibited fibronectin expression”, the “lung MCP-1 levels” value (bleomycin-exposed mice; 100 mg/kg/day po 15 days) was “reduced MCP-1 levels compared to vehicle without reaching significance” and the “lung TIMP-1 levels” value (bleomycin-exposed mice; 100 mg/kg/day po 15 days) was “significantly reduced TIMP-1 levels”. The lung osteopontin levels (bleomycin-exposed mice; 100 mg/kg/day po 15 days) was “reduced osteopontin levels compared to vehicle without reaching significance”, the “osteopontin expression (lung)” value (bleomycin-exposed mice; 100 mg/kg/day po 15 days) was “significantly inhibited osteopontin expression” and the “Col1a expression (liver)” value (CCl4-exposed mice; 30 mg/kg/day po 22 days) was “significantly inhibited the expression of Col1a”. For the same molecule, the “TGFβ-1 expression (liver)” value (CCl4-exposed mice; 30 mg/kg/day po 22 days) was “significantly inhibited the expression of TGFβ-1”, the “decrease of collagen levels (hepatic fibrosis)” value (CCl4-exposed mice; 30 mg/kg/day po 22 days) was 80% and the “fibronectin expression (liver)” value (CCl4-exposed mice; 30 mg/kg/day po 22 days) was “significantly inhibited the expression of fibronectin”. For the same molecule, the plasma triglycerides (CCl4-exposed mice; 30 mg/kg/day po 22 days) was “significantly reduced plasma triglycerides”, the “Col1a expression (liver)” value (CCl4-exposed mice; 100 mg/kg/day po 22 days) was “significantly inhibited the expression of Col1a” and the “MCP-1 expression (liver)” value (CCl4-exposed mice; 100 mg/kg/day po 22 days) was “significantly inhibited the expression of MCP-1”. For the same molecule, the “TGFβ-1 expression (liver)” value (CCl4-exposed mice; 100 mg/kg/day po 22 days) was “significantly inhibited the expression of TGFβ-1”, the “fibronectin expression (liver)” value (CCl4-exposed mice; 100 mg/kg/day po 22 days) was “significantly inhibited the expression of fibronectin” and the plasma triglycerides (CCl4-exposed mice; 100 mg/kg/day po 22 days) was “significantly reduced plasma triglycerides”. For the same molecule, the “α-SMA expression (liver)” value (CCl4-exposed mice; 100 mg/kg/day po 22 days) was “inhibited the expression of α-SMA compared to vehicle without reaching significance”, the “decrease of collagen levels (hepatic fibrosis)” value (CCl4-exposed mice; 100 mg/kg/day po 22 days, 100 mg/kg/day) was 89% and 90% and the “Col1a expression (kidney)” value (anti-GBM exposed mice; 30 mg/kg/day po 7 days) was “reduced”. For the same molecule, the “Col3a expression (kidney)” value (anti-GBM exposed mice; 30 mg/kg/day po 7 days) was “reduced”, the “kidney MCP-1 levels” value (anti-GBM exposed mice; 30 mg/kg/day po 7 days) was “reduced” and the kidney osteopontin levels (anti-GBM exposed mice; 30 mg/kg/day po 7 days) was “reduced”. The serum urea levels (anti-GBM exposed mice; 30 mg/kg/day po 7 days) was “reduced”, the urinary albumin levels (anti-GBM exposed mice; 30 mg/kg/day po 7 days) was “reduced” and the urinary volume (anti-GBM exposed mice; 30 mg/kg/day po 7 days) was “reduced urinary volume compared to vehicle without reaching significance”. For the same molecule, the “Col1a expression (kidney)” value (anti-GBM exposed mice; 100 mg/kg/day po 7 days) was “significantly inhibited Col1a expression”, the “Col3a expression (kidney)” value (anti-GBM exposed mice; 100 mg/kg/day po 7 days) was “significantly inhibited Col3a expression” and the “TGFβR-1 expression (kidney)” value (anti-GBM exposed mice; 100 mg/kg/day po 7 days) was “significantly inhibited TGFβ-R1 expression”. For the same molecule, the “kidney MCP-1 levels” value (anti-GBM exposed mice; 100 mg/kg/day po 7 days) was “significantly reduced MCP-1 levels”, the kidney osteopontin levels (anti-GBM exposed mice; 100 mg/kg/day po 7 days) was “significantly reduced osteopontin levels” and the “number of pathological glomeruli” value (anti-GBM exposed mice; 100 mg/kg/day po 7 days) was “significantly reduced the number of pathological glomeruli”. For the same molecule, the serum urea levels (anti-GBM exposed mice; 100 mg/kg/day po 7 days) was “significantly reduced urea levels”, the urinary albumin levels (anti-GBM exposed mice; 100 mg/kg/day po 7 days) was “reduced albumin levels compared to vehicle without reaching significance” and the urinary volume (anti-GBM exposed mice; 100 mg/kg/day po 7 days) was “reduced urinary volume compared to vehicle without reaching significance”. The EC50 (mouse PPARγ) was 170 nM and the EC50 (human PPARδ) was 530 nM.
